Test results: US20220162610A1, “NOVEL RNA TRANSCRIPT” (PTC Therapeutics, Inc., priority 2020, published 2022)

What was measured:
HTT mRNA = assay: RT-qPCR quantification of HTT mRNA in HD patient fibroblasts, 24 h; type: cell-based, human; settings: fibroblasts derived from HD patients
Procedure: Test compounds were serially diluted 3-fold in 100% DMSO to generate a 7-point concentration curve. A solution of test compound (500 nl, 200× in DMSO) was added to each test well with Acoustic Transfer System. Fibroblasts were seeded in 96-well flat-bottomed plates (Thermo Fisher Scientific) at 1×10^4 cells/well in 100 μl of culture medium containing the test compound or DMSO vehicle control and incubated for 24 hours (37° C., 5% CO2, 100% relative humidity). After removal of the supernatant, cells were lysed in RNA lysis buffer (1M Tris-HCL pH 7.4, 5M NaCl, 10% IGEPAL®CA-630; 50 μL/well) for 1 minute at RT, before 50 μL of chilled nuclease free water was added to each well; plates were then transferred immediately onto ice before storing at −80° C. overnight.
Cell lysates were assayed by quantitative reverse transcriptase polymerase chain reaction (RT-qPCR) to measure mRNA levels of HTT and glyceraldehyde 3-phosphate dehydrogenase (GAPDH) in the presence or absence of the test compound.
A reverse transcriptase quantitative polymerase chain reaction (RT-qPCR) reaction mixture of primers and probe sets for HTT and GAPDH was prepared according to TABLE III. […]

HTT pre-mRNA intron 49 = assay: Ampliseq Junction Expression Index (JEI) of HTT introns in GM04856 cells; type: cell-based, human; settings: 125 nM, 24 h, vs DMSO, P<0.05
Procedure: Targeted next-generation sequencing Novel splicing events originating from HTT pre-mRNA upon compound treatment were further analyzed using AmpliSeq technology. The GM04856 cells were plated in 6-well plates at 500,000 cells/well in 2000 μl DMEM/10% FBS and incubated for 6 hours in a cell culture incubator (37° C., 5% CO2, 100% relative humidity). Cells were then treated in triplicate with HTT-C1 at 125 nM (in 0.5% DMSO) for 24 hours. Following treatment, RNA was purified using an RNeasy Mini Kit (Qiagen) according to the manufacturer's protocol. Novel splice variants induced by the HTT-C1 compound were detected using Ion AmpliSeq technology (Life Technologies), a PCR-based target enrichment and next-generation sequencing platform. PCR enrichment of HTT exon targets was accomplished by applying a custom HTT AmpliSeq panel. The panel consisted of two separate PCR primer pools, each producing 33 amplicons. […]
For data analysis, Ampliseq reads (Fastq format) were mapped to human genome (hg19) using tophat2 which allowed identification of both known and novel splice junctions. For each one of the 66 introns of HTT gene, a Junction Expression Index (JEI) was calculated using the percent of reads supporting the splicing of the exact annotated intron among all reads supporting the splicing isoforms using either the 5′ splice or/and 3′ splice site of that intron (FIG. 3B). […]

mouse HTT protein = assay: Mouse HTT protein expression under compound treatment; type: cell-based; settings: at concentrations that reduce human HTT protein expression
[1] = tested on: human HTT intron 49 minigene; assay: Human HTT intron 49 minigene splicing in transfected HEK293 cells (endpoint PCR); type: cell-based; settings: 10 nM, 100 nM, 1 μM, 24 h
Procedure: To identify potential sequence elements, human, mouse, and hybrid mouse/human HTT intron 49 minigene constructs were generated (FIG. 7A,7Bi-xii, 7Di-viii and 7Ei-vi). HEK293 cells transfected with the minigene constructs were treated with varying concentrations of test compounds in a final concentration 0.05% DMSO and incubated for 24 hours. Total RNA was isolated from the cells using the RNeasy plus mini kit (Qiagen) and RNA concentration and quality were assessed using a NanoDrop spectrophotometer (Thermo Fisher Scientific). cDNA was synthesized using an iScript™ cDNA synthesis kit (Bio-rad Laboratories) according to the manufacturer's instructions. Endpoint PCRs were set up using Platinum™ PCR SuperMix High Fidelity (Invitrogen) and the resulting PCR products separated on 2% eGels (Invitrogen). Primers were directed against common sequences in the minigene constructs: […]

[2] = Oral pharmacokinetics in WT littermates of the BACHD colony; type: in vivo, mouse; settings: single oral dose of 10 mg/kg
Procedure: Oral pharmacokinetics (PK) of compounds was evaluated in WT littermates from the BACHD colony (FVB background). Mice were treated with test compounds (10 mg/kg) by oral gavage in 0.5% hydroxypropylmethyl cellulose (HPMC) with 0.1% Tween 80. Blood was collected by terminal cardiac puncture at specified time points (3 mice per time point) and centrifuged to generate plasma. Brain tissue was collected at the time of blood collection and homogenized in water. Protein was precipitated from plasma and brain homogenates with acetonitrile, methanol mixture (5:1, v:v) containing an internal standard that is a close analog of the test compounds. The mixture was filtered through an EMD Millipore MultiScreen™ Solvinert Filter Plate (MSRLN04, Millipore, Burlington, Mass.). Calibration standards were prepared in the same matrix and processed with the testing samples. Filtrates were analysed using Acquity ultra performance liquid chromatography (UPLC) system (Waters Corporation) tandem with Xevo TQ-s Spectrometer (Waters Corporation). Samples were injected on to a Waters UPLC Acquity BEH C18 Column (2.1*50 mm, 1.7 μm) maintained at 50° C. The injection volume was 3 μL and the mobile phase flow rate was 0.45 mL/min. The mobile phase consisted of 2 solvents: A) 0.1% formic acid in water and B) 0.1% formic acid in acetonitrile. […]

CC1(C)CC(Oc2ccc(-c3ccc(-c4ccnc(O)c4)cc3O)nn2)CC(C)(C)N1 [HTT-C1]
amount of HTT mRNA (HTT mRNA): dose-dependent decrease
reduction of junction expression index (JEI) in intron 49 (HTT pre-mRNA intron 49): > 25%
mouse HTT protein expression (mouse HTT protein): no effect

CC1(C)CC(Oc2ccc(-c3ccc(-c4cn[nH]c4)cc3O)nn2)CC(C)(C)N1 [HTT-C2]
compound-induced splicing of minigene [1]: responded in a dose dependent manner
plasma exposure [2]: superior exposure to HTT-C1

CCN1CCC(c2cc(C)c3nc(-c4ccc5nn(C)cc5c4)cc(=O)n3c2)CC1 [HTT-D1]
amount of HTT mRNA (HTT mRNA): dose-dependent decrease
